Data published in patent US20020137929A1, “1 - (3-heterocyclylphenyl) isothiourea, -isourea, -guanidine and -amidine herbicidal agents” (Intellectual Property Department, BASF Aktiengesellschaft, priority 1998, published 2002).

Key:
[1] = system: GLXMAW (Soybean, Williams); assay: Preemergence herbicidal evaluation; assay type: in vivo, Glycine max, (L.) Merr. cv Williams; conditions: rated 4-5 weeks after treatment; for GLXMAW rating: preemergence, 0-9 scale
Outline: (§1)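 Steps: mix seeds into potting soil; plant atop ~1 inch soil; spray compound in aqueous acetone (~0.0156-0.500 kg/ha equivalent); maintain in greenhouse with watering; rate visually 0-9 versus control at 4-5 weeks.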

MOOVA (Monochoria) = assay: Postemergence weed control under flooded paddy conditions; assay type: in vivo, Monochoria vaginalis; conditions: postemergence weeds
Outline: (§2)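 Injury ratings (0–9 scale covering stand, vigor, malformation, size, chlorosis and overall appearance versus control) were made three to four weeks after treatment. Test material, about 0.0313 to 0.500 kg/ha a.i. in 50/50 v/v aqueous/acetone, was added to flood water 1.5 to 3 cm deep over 3 to 5 cm weeds and 1.5 to 2.5 leaf rice.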

ZEAMX (Corn, Field) = assay: Postemergence herbicidal evaluation; assay type: in vivo, Zea mays; conditions: for ZEAMX herbicidal rating: postemergence
Outline: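 Scores (0–9) reflect plant stand, vigor, malformation, size, chlorosis and general appearance relative to control, read 4 to 5 weeks after treatment and averaged where tests were repeated. Application: about 0.0156–0.500 kg/ha sprayed at 40 psi onto two-week seedlings.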

ABUTH (Velvetleaf) = assay: Preemergence herbicidal evaluation; assay type: in vivo, Abutilon theophrasti; conditions: rated 4-5 weeks after treatment; for ABUTH rating: preemergence, 0-9 scale
Outline: as §1

[2] = system: SAGPY (Arrowhead (Pygmaea)); assay: Postemergence weed control under flooded paddy conditions; assay type: in vivo, Sagittaria pygmaea; conditions: postemergence weeds
Outline: as §2

AMBEL (Ragweed, Common) = assay: Preemergence herbicidal evaluation; assay type: in vivo, Ambrosia artemisifolia; conditions: rated 4-5 weeks after treatment; for AMBEL rating: preemergence, 0-9 scale
Outline: as §1

[3] = Rate 0.0313 kg/ha, rated 3 to 4 weeks after treatment
[4] = Rate 0.0625 kg/ha, rated 3 to 4 weeks after treatment
[5] = Rate 0.1250 kg/ha, rated 3 to 4 weeks after treatment
[6] = Rate 0.2500 kg/ha, rated 3 to 4 weeks after treatment
[7] = rate 0.0313 kg/ha, 3-4 weeks after treatment
[8] = rate 0.0625 kg/ha, 3-4 weeks after treatment
[9] = rate 0.1250 kg/ha, 3-4 weeks after treatment
[10] = rate 0.2500 kg/ha, 3-4 weeks after treatment

C=CCN1C(=O)C(CC(=O)OC(C)C(=O)OCC)SC1=Nc1cc(-n2c(=O)ccn(C)c2=O)c(F)cc1Cl [Compound 94, 3-Allyl-2-{{2-chloro-5-[3,6-dihydro-3-methyl-2,6-dioxo-1(2H)-pyrimidinyl]-4-fluorophenyl}imino}-4-oxo-5-thiazolidineacetic acid, ester with ethyl lactate, (R,S)-]
GLXMAW rating ([1]; 0.0156 kg/ha): 0.0
GLXMAW rating ([1]; 0.0313 kg/ha): 0.0
GLXMAW rating ([1]; 0.0625 kg/ha): 0.0
GLXMAW rating ([1]; 0.1250 kg/ha): 0.0
GLXMAW rating ([1]; 0.2500 kg/ha): 4.0
Herbicidal rating MOOVA (MOOVA (Monochoria); [3]): 9.0
Herbicidal rating MOOVA (MOOVA (Monochoria); [4]): 9.0
Herbicidal rating MOOVA (MOOVA (Monochoria); [5]): 9.0
Herbicidal rating MOOVA (MOOVA (Monochoria); [6]): 9.0
ZEAMX herbicidal rating (ZEAMX (Corn, Field); rate 0.0158 kg/ha): 8.5
ZEAMX herbicidal rating (ZEAMX (Corn, Field); rate 0.0315 kg/ha): 8.5
ZEAMX herbicidal rating (ZEAMX (Corn, Field); rate 0.0630 kg/ha): 9.0
ABUTH rating (ABUTH (Velvetleaf); 0.0156 kg/ha): 0.0
ABUTH rating (ABUTH (Velvetleaf); 0.0313 kg/ha): 9.0
ABUTH rating (ABUTH (Velvetleaf); 0.0625 kg/ha): 9.0
ABUTH rating (ABUTH (Velvetleaf); 0.1250 kg/ha): 9.0
ABUTH rating (ABUTH (Velvetleaf); 0.2500 kg/ha): 9.0
Herbicidal rating SAGPY [2, 3]: 0.0
Herbicidal rating SAGPY [2, 4]: 0.0
Herbicidal rating SAGPY [2, 5]: 5.0
Herbicidal rating SAGPY [2, 6]: 9.0
AMBEL rating (AMBEL (Ragweed, Common); 0.0156 kg/ha): 0.0
AMBEL rating (AMBEL (Ragweed, Common); 0.0313 kg/ha): 0.0
AMBEL rating (AMBEL (Ragweed, Common); 0.0625 kg/ha): 4.0
AMBEL rating (AMBEL (Ragweed, Common); 0.1250 kg/ha): 9.0
AMBEL rating (AMBEL (Ragweed, Common); 0.2500 kg/ha): 9.0

C=CCN1C(=O)C(CC(=O)O)SC1=Nc1cc(-n2c(=O)cc(C(F)(F)F)n(C)c2=O)c(F)cc1Cl (stereo not shown) [Compound 62, 3-Allyl-2-{{2-chloro-5-[3,6-dihydro-3-methyl-2,6-dioxo-4-(trifluoromethyl)-1(2H)-pyrimidinyl]-4-fluorophenyl}imino}-4-oxo-5-thiazolidineacetic acid]
Preemergence herbicidal rating GLXMAW ([1]; rate 0.0156 kg/ha): 0.0
Preemergence herbicidal rating GLXMAW ([1]; rate 0.0313 kg/ha): 0.0
Preemergence herbicidal rating GLXMAW ([1]; rate 0.0625 kg/ha): 1.0
Preemergence herbicidal rating GLXMAW ([1]; rate 0.1250 kg/ha): 2.0
Preemergence herbicidal rating GLXMAW ([1]; rate 0.2500 kg/ha): 7.0
Herbicidal rating MOOVA (MOOVA (Monochoria); [3]): 4.0
Herbicidal rating MOOVA (MOOVA (Monochoria); [4]): 9.0
Herbicidal rating MOOVA (MOOVA (Monochoria); [5]): 9.0
Herbicidal rating MOOVA (MOOVA (Monochoria); [6]): 9.0
Postemergence herbicidal rating ZEAMX (ZEAMX (Corn, Field); Rate 0.0158 kg/ha): 7.5
Postemergence herbicidal rating ZEAMX (ZEAMX (Corn, Field); Rate 0.0315 kg/ha): 8.0
Postemergence herbicidal rating ZEAMX (ZEAMX (Corn, Field); Rate 0.0630 kg/ha): 8.0
Preemergence herbicidal rating ABUTH (ABUTH (Velvetleaf); rate 0.0156 kg/ha): 4.0
Preemergence herbicidal rating ABUTH (ABUTH (Velvetleaf); rate 0.0313 kg/ha): 7.0
Preemergence herbicidal rating ABUTH (ABUTH (Velvetleaf); rate 0.0625 kg/ha): 9.0
Preemergence herbicidal rating ABUTH (ABUTH (Velvetleaf); rate 0.1250 kg/ha): 9.0
Preemergence herbicidal rating ABUTH (ABUTH (Velvetleaf); rate 0.2500 kg/ha): 9.0
Herbicidal rating SAGPY [2, 3]: 0.0
Herbicidal rating SAGPY [2, 4]: 0.0
Herbicidal rating SAGPY [2, 5]: 3.0
Herbicidal rating SAGPY [2, 6]: 6.0
Preemergence herbicidal rating AMBEL (AMBEL (Ragweed, Common); rate 0.0156 kg/ha): 2.0
Preemergence herbicidal rating AMBEL (AMBEL (Ragweed, Common); rate 0.0313 kg/ha): 5.0
Preemergence herbicidal rating AMBEL (AMBEL (Ragweed, Common); rate 0.0625 kg/ha): 7.0
Preemergence herbicidal rating AMBEL (AMBEL (Ragweed, Common); rate 0.1250 kg/ha): 9.0
Preemergence herbicidal rating AMBEL (AMBEL (Ragweed, Common); rate 0.2500 kg/ha): 7.0

COC(=O)CN1C(=O)CSC1=Nc1cc(-n2c(=O)cc(C(F)(F)F)n(C)c2=O)c(F)cc1Cl [Compound 17, Methyl 2-{{2-chloro-5-[3,6-dihydro-3-methyl-2,6-dioxo-4-(trifluoromethyl)-1(2H)-pyrimidinyl]-4-fluorophenyl}imino}-4-oxo-3-thiazolidineacetate]
GLXMAW preemergence herbicidal rating ([1]; rate 0.0156 kg/ha): 0.0
GLXMAW preemergence herbicidal rating ([1]; rate 0.0313 kg/ha): 0.0
GLXMAW preemergence herbicidal rating ([1]; rate 0.0625 kg/ha): 0.3
GLXMAW preemergence herbicidal rating ([1]; rate 0.1250 kg/ha): 0.3
GLXMAW preemergence herbicidal rating ([1]; rate 0.2500 kg/ha): 3.3
GLXMAW preemergence herbicidal rating ([1]; rate 0.5000 kg/ha): 6.5
Herbicidal rating MOOVA (MOOVA (Monochoria); [7]): 9.0
Herbicidal rating MOOVA (MOOVA (Monochoria); [8]): 9.0
Herbicidal rating MOOVA (MOOVA (Monochoria); [9]): 9.0
Herbicidal rating MOOVA (MOOVA (Monochoria); [10]): 9.0
ZEAMX herbicidal rating (ZEAMX (Corn, Field); rate 0.0156 kg/ha): 7.0
ZEAMX herbicidal rating (ZEAMX (Corn, Field); rate 0.0313 kg/ha): 7.3
ZEAMX herbicidal rating (ZEAMX (Corn, Field); rate 0.0625 kg/ha): 7.8
ZEAMX herbicidal rating (ZEAMX (Corn, Field); rate 0.1250 kg/ha): 7.8
ABUTH preemergence herbicidal rating (ABUTH (Velvetleaf); rate 0.0156 kg/ha): 0.0
ABUTH preemergence herbicidal rating (ABUTH (Velvetleaf); rate 0.0313 kg/ha): 4.0
ABUTH preemergence herbicidal rating (ABUTH (Velvetleaf); rate 0.0625 kg/ha): 9.0
ABUTH preemergence herbicidal rating (ABUTH (Velvetleaf); rate 0.1250 kg/ha): 9.0
ABUTH preemergence herbicidal rating (ABUTH (Velvetleaf); rate 0.2500 kg/ha): 9.0
ABUTH preemergence herbicidal rating (ABUTH (Velvetleaf); rate 0.5000 kg/ha): 9.0
Herbicidal rating SAGPY [2, 7]: 0.0
Herbicidal rating SAGPY [2, 8]: 0.0
Herbicidal rating SAGPY [2, 9]: 4.0
Herbicidal rating SAGPY [2, 10]: 4.0
AMBEL preemergence herbicidal rating (AMBEL (Ragweed, Common); rate 0.0156 kg/ha): 0.0
AMBEL preemergence herbicidal rating (AMBEL (Ragweed, Common); rate 0.0313 kg/ha): 0.7
AMBEL preemergence herbicidal rating (AMBEL (Ragweed, Common); rate 0.0625 kg/ha): 1.7
AMBEL preemergence herbicidal rating (AMBEL (Ragweed, Common); rate 0.1250 kg/ha): 4.3
AMBEL preemergence herbicidal rating (AMBEL (Ragweed, Common); rate 0.2500 kg/ha): 6.7
AMBEL preemergence herbicidal rating (AMBEL (Ragweed, Common); rate 0.5000 kg/ha): 9.0
